The values that follow come from the SangsterLogP compilation.

For orientation: logP means the decadic logarithm of the partition coefficient of the neutral form, usually between octanol and water. Read a high logP as higher lipophilicity. Turning to `Clc1ccccc1N1CCNCC1`, the log partition coefficient (logP) is 2.13.
As for `c1csc(N2CCNCC2)n1`, the figure is 0.61; as for `Clc1cccc(N2CCNCC2)c1`, 2.11; as for `COc1ccccc1N1CCNCC1`, 1.09.
The result for `Cc1ccccc1N1CCNCC1` reads 2.14; that for `Fc1ccc(N2CCNCC2)cc1`, 1.28; that for `Fc1cnc(N2CCNCC2)nc1`, 0.97.
The result for `Clc1ccc(N2CCNCC2)cc1` reads 2.01; that for `c1cnc(N2CCNCC2)nc1`, 0.49; that for `FC(F)(F)c1cccc(N2CCNCC2)c1`, 2.43.
Turning to `c1ccc2nc(N3CCNCC3)ccc2c1`, the logP was determined as 2.04.
As for `c1ccc(N2CCNCC2)nc1`, the figure is 0.74; as for `c1ccc2c(N3CCNCC3)nsc2c1`, 2.14.
